Laboratory results reported in publication PMC11241262, “Unravelling the Antifibrinolytic Mechanism of Action of the 1,2,3-Triazole Derivatives” (International Journal of Molecular Sciences, 2024).
Values after ≈ are worked out from the molar mass of the structure shown.

Experiments:
plasminogen = target: T1, plasminogen (Homo sapiens, UniProt P00747); experiment: Plasminogen activation assay (conversion of plasminogen into plasmin by tPA in the absence of fibrin); assay type: biochemical
T1 construct: purchased abcam
T1 sequence (P00747 20-810 limits assumed): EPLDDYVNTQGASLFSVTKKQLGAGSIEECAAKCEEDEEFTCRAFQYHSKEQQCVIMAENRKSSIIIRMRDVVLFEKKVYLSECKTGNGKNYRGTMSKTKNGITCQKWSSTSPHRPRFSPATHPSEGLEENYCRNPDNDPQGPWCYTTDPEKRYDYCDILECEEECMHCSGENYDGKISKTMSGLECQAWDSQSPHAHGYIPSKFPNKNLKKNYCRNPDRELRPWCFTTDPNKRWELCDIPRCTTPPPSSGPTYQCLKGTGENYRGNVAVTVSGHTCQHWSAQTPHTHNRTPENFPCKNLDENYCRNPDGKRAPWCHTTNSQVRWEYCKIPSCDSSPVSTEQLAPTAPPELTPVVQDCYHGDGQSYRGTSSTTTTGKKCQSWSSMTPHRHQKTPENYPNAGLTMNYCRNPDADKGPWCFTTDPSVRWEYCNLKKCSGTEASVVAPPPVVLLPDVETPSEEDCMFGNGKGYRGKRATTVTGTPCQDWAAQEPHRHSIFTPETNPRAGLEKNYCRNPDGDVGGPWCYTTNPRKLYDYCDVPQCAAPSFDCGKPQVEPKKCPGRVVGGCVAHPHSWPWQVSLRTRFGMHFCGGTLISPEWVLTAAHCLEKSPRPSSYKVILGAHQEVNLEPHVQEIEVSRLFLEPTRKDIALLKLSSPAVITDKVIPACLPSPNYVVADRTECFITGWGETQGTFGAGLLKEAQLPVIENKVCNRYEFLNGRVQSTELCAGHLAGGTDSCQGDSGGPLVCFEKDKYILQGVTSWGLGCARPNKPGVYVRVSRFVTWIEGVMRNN
Procedure: The conversion rate of plasminogen to plasmin was assessed using the Tissue-Type Plasminogen Activator Activity Assay Kit (abcam), following the manufacturer’s instructions. The assay measures the ability of tPA to activate plasminogen to plasmin in the presence of the tested compounds using a chromogenic substrate.
A solution of plasminogen and plasmin substrate was mixed with a previously prepared solution of the studied compound and tPA in Tris HCl buffer in a 96-well plate. The final concentration of tPA in each well was 6.8 µg/mL, in a final volume of 100 µL. Absorbance was measured on a microplate reader at a wavelength of 405 nm every minute at 37 °C for 2 h or until the system reached saturation. The absorbance slope of each sample was determined using Equation (3). The Relative Plasminogen Activation (%) for each condition was calculated with Equation (4), using a control without a compound (enzyme control). (4) Relative Plasminogen Activation (%)=SlopeCompound−SlopeControl/SlopeControl×100
Values were fitted to a linear model using MATLAB R2023a (The Math Works Inc., Natick, MA, USA). Concentrations at which each compound was able to increase plasminogen’s conversion by 50% in comparison to the enzyme control were extracted and compared for the three molecules.

[1] = Pharmacokinetic study in Wistar rats; assay type: in vivo; details: for Mortality: PK2 2.5 mg/kg iv, 9 rats; for AUC / Cmax / Tmax / Vd / clearance / half-life: iv
Procedure: A pharmacokinetic study was performed for compound 5 in Wistar rats and Beagle dogs. For rats, a total of 35 male and 35 female rats were used for the study. At initiation of the dosing, rats were 9 to 10 weeks old and the body weight variation among rats was within ±20% of the mean body weight for each sex. […] Food and filtered water were provided ad libitum. During randomization, 30 male and 30 female rats were selected for the study and randomly allocated to the 4 different groups. The remaining 5 male and 5 female rats were returned to the animal facility. Rats were observed twice daily for morbidity, mortality, and clinical signs during the whole study period. Rats were euthanized after last blood collection time point by carbon dioxide asphyxiation. Sterile water served as a vehicle to dissolve compound 5 and the resulting formulations were administered right after preparation. Dose formulations were administered to rats via an intravenous bolus injection through the tail vein, using a sterile needle attached to a graduated syringe. A fixed volume of 5 mL/kg body weight was administered. Individual doses were adjusted based on the most recent recorded body weight of each rat. Four dose levels were selected: vehicle control (PK1), 2.5 mg/kg (PK2), 5 mg/kg (PK3), and 10 mg/kg (PK4).
Pharmacokinetic assessment of compound 5 was conducted on the day of dosing at multiple time points: 0 h (pre-dose), 5 min, 15 min, 0.5 h, 1 h, 2 h, 4 h, 6 h, 10 h, and 24 h post-dosing for PK2, PK3, and PK4 rats. At each time point, samples were only obtained from a subset of 3 rats. For the PK1 group, samples were collected at 0 h and at 24 h post-dosing. Blood samples (400 µL) were collected into heparin sodium tubes from the retro-orbital plexus under very light isoflurane anesthesia. Samples were inverted 4 to 5 times and placed on ice and then centrifuged at 3500 rpm for 15 min at 8 °C for plasma extraction. Plasma was transferred to Eppendorf tubes and stored at −70 ± 10 °C until assayed. The concentration of compound 5 was analyzed in plasma using High-Performance Liquid Chromatography. […] The mobile phase consisted of acetonitrile (A) and 2 mM ammonium Formate in Mili-Q water (B) with an isocratic elution mode. Pharmacokinetic analysis of the concentration of compound 5 in plasma was performed using the non-compartmental model of the WinNonlin® software version 8.1 at JRF. The group mean values of plasma concentration were analyzed to obtain different pharmacokinetics parameters, including Cmax (maximum peak concentration), Tmax (time of maximum peak concentration), AUC (area under the concentration–time curve, Cl (clearance), Vd (volume of distribution), Kel (elimination rate constant), and T1/2 (terminal half-life).

[2] = test system: whole blood clot formation; experiment: Whole blood coagulation assay (clot formation, no exogenous tPA); design: species or system human; details: 40 µM, 37 °C, fibrinolysis not triggered
Procedure: Blood was obtained by venipuncture from healthy donors after they signed an informed consent form. Blood was transferred into vacuum non-anticoagulant Vacutainer® tubes (BD, Franklin Lakes, NJ, USA). Blood samples were immediately used for the assay after extraction.
Prior to blood addition, 20 µL of the evaluated compounds was added to glass tubes, in a final concentration of 40 µM. As a control clot, 20 µL of Tris HCl buffer with no compound was used. Next, 800 µL of blood was transferred to each tube followed by casual shaking to ensure proper mixing. Tubes were incubated at 37 °C for 30 min to allow clot formation and posterior lysis. Blood clotting and lysis were visually monitored and photographs were taken after 30 min.

[3] = Maximum solubility in plasmin assay; assay type: physicochemical; details: Tris HCl buffer (plasmin activity assay solution), pH 7.5
[4] = female, Wistar, rat, in vivo, 2.5 mg/kg
[5] = female, Wistar, rat, in vivo, 5 mg/kg
[6] = female, Wistar, rat, in vivo, 10 mg/kg
[7] = male, Wistar, rat, in vivo, 2.5 mg/kg
[8] = male, Wistar, rat, in vivo, 5 mg/kg
[9] = male, Wistar, rat, in vivo, 10 mg/kg

## O=c1[nH]nc(-c2cn(C3CCNCC3)nn2)o1 [compound 5]
plasminogen; from concentration enhancing tPA's activity by 50%
  potency relative to TXA in catalyzing plasminogen's activation by tPA: more than 50 times
plasminogen; plasminogen-tPA isolated system, absence of fibrin
  concentration at which compound increased tPA's activity by 50%: 4.03 µM
[1]; female
  Mortality: 0 number of rats
[1]; male
  Mortality: 0 number of rats
[1]; both, Wistar (rat), Beagle (dog), rat, in vivo
  elimination halftime: 2 to 3 h
[1]; [4]
  AUC: 3630 ng·h/mL
  Cmax: 8660 ng/mL
  Tmax: 4.8 min
  Vd: 1.91 L/kg
  clearance: 11.5 mL/min/kg
  half-life: 115 min
[1]; [5]
  AUC: 7040 ng·h/mL
  Tmax: 4.8 min
  Vd: 2.03 L/kg
  clearance: 11.8 mL/min/kg
  half-life: 119 min
[1]; [6]
  AUC: 13600 ng·h/mL
  Tmax: 4.8 min
  Vd: 2.37 L/kg
  clearance: 12.2 mL/min/kg
  half-life: 134 min
[1]; [7]
  AUC: 3430 ng·h/mL
  Cmax: 8280 ng/mL
  Tmax: 4.8 min
  Vd: 2.52 L/kg
  clearance: 12.2 mL/min/kg
  half-life: 145 min
[1]; [8]
  AUC: 6530 ng·h/mL
  Cmax: 15100 ng/mL
  Tmax: 4.8 min
  Vd: 6.01 L/kg
  clearance: 12.7 mL/min/kg
  half-life: 327 min
[1]; [9]
  AUC: 12200 ng·h/mL
  Cmax: 26300 ng/mL
  Tmax: 4.8 min
  Vd: 6.65 L/kg
  clearance: 13.7 mL/min/kg
  half-life: 337 min
[1]; rat, in vivo, 5 mg/kg
  Cmax: 16,634
[1]; rat, in vivo, 10 mg/kg
  Cmax: 30,839
[2]
  effect on clot formation: do not have any effect
[3]
  solubility: 20 mM (≈ 4720 µg/mL)
